Assay results as given in patent publication US20240116985A1, “STAPLED PEPTIDES AND METHODS THEREOF” (priority 2020, published 2024).
≈ marks a conversion by molar mass, not a printed value. Where two headings read alike, the source gives them in different places.

Columns and labels:
[1] = biological target: T1, full-length beta-Catenin (Uniprot ID P35222) (Homo sapiens, UniProt P35222); experiment: Fluorescence polarization IC50 (beta-catenin / 5FAM-TCF4 10-53 competition); assay type: binding; details: fluorescence polarization; read-out: beta-Catenin FP IC50
T1 construct: 10 nM full-length beta-Catenin (Uniprot ID P35222)
T1 sequence (P35222 1-781): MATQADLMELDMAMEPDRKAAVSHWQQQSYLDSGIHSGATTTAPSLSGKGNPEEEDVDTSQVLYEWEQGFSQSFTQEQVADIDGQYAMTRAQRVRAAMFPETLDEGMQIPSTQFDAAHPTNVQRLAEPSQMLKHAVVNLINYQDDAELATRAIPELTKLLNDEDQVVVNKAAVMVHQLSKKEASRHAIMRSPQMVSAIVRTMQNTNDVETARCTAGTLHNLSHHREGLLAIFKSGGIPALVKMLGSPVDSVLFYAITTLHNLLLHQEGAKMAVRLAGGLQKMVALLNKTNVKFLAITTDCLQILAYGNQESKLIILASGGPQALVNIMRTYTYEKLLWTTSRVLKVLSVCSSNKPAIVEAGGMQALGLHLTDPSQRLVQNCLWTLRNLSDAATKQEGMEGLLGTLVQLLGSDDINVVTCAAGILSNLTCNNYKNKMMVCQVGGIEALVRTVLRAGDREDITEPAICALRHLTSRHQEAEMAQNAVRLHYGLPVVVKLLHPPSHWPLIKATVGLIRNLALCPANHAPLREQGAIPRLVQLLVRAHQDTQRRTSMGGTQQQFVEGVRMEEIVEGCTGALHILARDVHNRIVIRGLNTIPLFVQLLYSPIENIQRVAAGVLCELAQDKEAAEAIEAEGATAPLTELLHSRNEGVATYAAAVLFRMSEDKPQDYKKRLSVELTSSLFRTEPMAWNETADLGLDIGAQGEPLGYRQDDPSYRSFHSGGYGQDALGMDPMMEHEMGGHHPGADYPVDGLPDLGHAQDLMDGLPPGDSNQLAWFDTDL

[2] = Solubility in PBS; assay type: physicochemical
Method in brief: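 Steps: ultracentrifuge the peptide PBS solution, inject the supernatant on HPLC, inject a 50 μM peptide DMSO solution as reference, then calculate solubility as area ratio (PBS/DMSO) × 50 uM.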

Structure (SMILES) | IC50 [1] | Solubility ([2]; Solubility (uM)) | Solubility [2]
CC(=O)N1CCC[C@]12CC=CCCCC1(CCCC=CCCCCCC[C@@](C)(C(=O)N[C@@H](Cc3ccccc3Cl)C(=O)N[C@@H](Cc3csc4ccccc34)C(=O)N[C@@H](CO)C(N)=O)NC(=O)[C@H](CC(C)C)NC(=O)[C@H](Cc3ccccc3)NC(=O)[C@H](C)NC(=O)[C@H](C)NC(=O)[C@H](CC(=O)O)NC(=O)[C@H](CC(=O)O)NC1=O)NC(=O)[C@H](CC(C)(C)C)NC(=O)[C@H](CC(=O)O)NC2=O (stereo partly drawn) [I-1189, Ac-PL3-Asp-Npg-B5-Asp-Asp-Ala-Ala-Phe-Leu-S8-2C1F-BztA-Ser-NH2] | 94.5 nM |  | 10 µM (≈ 18.6 µg/mL)
CC(=O)N1CCC[C@]12CC=CCCCC1(CCCC=CCCCOC(=O)N3CC[C@@](C(=O)N[C@@H](Cc4ccccc4)C(=O)N[C@@H](Cc4csc5ccccc45)C(=O)N[C@@H](CCC(N)=O)C(N)=O)(C3)NC(=O)[C@H](CC(C)C)NC(=O)[C@H](Cc3ccccc3)NC(=O)[C@H](C)NC(=O)[C@H](CCCCNC(C)C)NC(=O)[C@H]([C@@H](C)O)NC(=O)[C@H](CC(=O)O)NC1=O)NC(=O)[C@H](C)NC(=O)[C@H](CC(N)=O)NC2=O (stereo partly drawn) [I-1382, Ac-PL3-Asn-Ala-B5-Asp-Thr-iPrLys-Ala-Phe-Leu-PyrS2-Phe-BztA-Gln-NH2] | 2850 nM |  | 10 µM (≈ 19.4 µg/mL)
CC(=O)N1CCC[C@]12CC=CCCCC1(CCCC=CCCCOC(=O)N3CC[C@@](C(=O)N[C@@H](Cc4ccsc4)C(=O)N[C@@H](Cc4csc5ccccc45)C(=O)N[C@@H](CCC(N)=O)C(N)=O)(C3)NC(=O)[C@H](CC(C)C)NC(=O)[C@H](Cc3ccccc3)NC(=O)[C@H](C)NC(=O)[C@H](C)NC(=O)[C@H](CC(=O)O)NC(=O)[C@H](CO)NC1=O)NC(=O)[C@H](CC(C)(C)C)NC(=O)[C@H](CC(=O)O)NC2=O (stereo partly drawn) [I-1209, Ac-PL3-Asp-Npg-B5-Ser-Asp-Ala-Ala-Phe-Leu-PyrS2-3Thi-BztA-Gln-NH2] | 479 nM | 16 µM (≈ 30.2 µg/mL) | 
CC(=O)N1CCC[C@]12CC=CCCCC1(CCCC=CCCCOC(=O)N3CC[C@@](C(=O)N[C@@H](Cc4ccsc4)C(=O)N[C@@H](Cc4csc5ccccc45)C(=O)N[C@@H](CCC(N)=O)C(N)=O)(C3)NC(=O)[C@H](CC(N)=O)NC(=O)[C@H](Cc3ccccc3)NC(=O)[C@H](C)NC(=O)[C@H](C)NC(=O)[C@H](CC(=O)O)NC(=O)[C@H](CCC(N)=O)NC1=O)NC(=O)[C@H](CC(C)(C)C)NC(=O)[C@H](CC(=O)O)NC2=O (stereo partly drawn) [I-1210, Ac-PL3-Asp-Npg-B5-Gln-Asp-Ala-Ala-Phe-Asn-PyrS2-3Thi-BztA-Gln-NH2] | 56 nM |  | 50 µM (≈ 96.6 µg/mL)

Continued by falling IC50 [1], values first:

IC50 [1] | Solubility ([2]; Solubility (uM)) | Solubility [2] | Structure (SMILES)
409 nM |  | 50 µM (≈ 94 µg/mL) | CC(=O)N1CCC[C@H]1C(=O)N[C@@H](CC(=O)O)C(=O)N[C@@H](CC(C)(C)C)C(=O)N[C@]1(C)CCCC=CCCCOC(=O)N2CC[C@@](C(=O)N[C@@H](Cc3ccccc3Cl)C(=O)N[C@@H](Cc3csc4ccccc34)C(=O)N[C@@H](CCC(N)=O)C(N)=O)(C2)NC(=O)[C@H](CC(N)=O)NC(=O)[C@H](Cc2ccccc2)NC(=O)[C@H](C)NC(=O)[C@H](C)NC(=O)[C@H](CC(=O)O)NC(=O)[C@H](CC(=O)O)NC1=O [I-1183, Ac-Pro-Asp-Npg-R5-Asp-Asp-Ala-Ala-Phe-Asn-PyrS2-2C1F-BztA-Gln-NH2]
331 nM | 21 µM (≈ 38.6 µg/mL) |  | CC(=O)N1CCC[C@]12CC=CCCCC1(CCCC=CCCCOC(=O)N3CC[C@@](C(=O)N[C@@H](Cc4ccccc4)C(=O)N[C@@H](Cc4cccc5ccccc45)C(=O)N[C@@H](CO)C(N)=O)(C3)NC(=O)[C@H]([C@@H](C)O)NC(=O)[C@H](Cc3ccccc3)NC(=O)[C@H](C)NC(=O)[C@H](C)NC(=O)[C@H]([C@@H](C)O)NC(=O)[C@H](CC(=O)O)NC1=O)NC(=O)[C@H](CC(C)(C)C)NC(=O)[C@H](CC(=O)O)NC2=O (stereo partly drawn) [I-1272, Ac-PL3-Asp-Npg-B5-Asp-Thr-Ala-Ala-Phe-Thr-PyrS2-Phe-1NapA-Ser-NH2]
